The record followed here is patent publication US8841450B2, “Compounds useful as inhibitors of ATR kinase” (Vertex Pharmaceuticals Incorporated, priority 2011, dated 2014).

Molecules are shown by their SMILES.

The target of the assay is ATR kinase (Homo sapiens (Human), UniProt Q13535). Briefly: ATR Inhibition Assay (radioactive-phosphate incorporation). The format is biochemical. The note with it: Ki(app); 5 nM full-length ATR, 10 μM [γ-33P]ATP, 800 μM target peptide, 25° C. The procedure: Compounds were screened for their ability to inhibit ATR kinase using a radioactive-phosphate incorporation assay. Assays were carried out in a mixture of 50 mM Tris/HCl (pH 7.5), 10 mM MgCl2 and 1 mM DTT. Final substrate concentrations were 10 μM [γ-33P]ATP (3mCi 33P ATP/mmol ATP, Perkin Elmer) and 800 μM target peptide (ASELPASQPQPFSAKKK).
Assays were carried out at 25° C. in the presence of 5 nM full-length ATR. An assay stock buffer solution was prepared containing all of the reagents listed above, with the exception of ATP and the test compound of interest. 13.5 μL of the stock solution was placed in a 96 well plate followed by addition of 2 μL of DMSO stock containing serial dilutions of the test compound (typically starting from a final concentration of 15 μM with 3-fold serial dilutions) in duplicate (final DMSO concentration 7%). The plate was pre-incubated for 10 minutes at 25° C. and the reaction initiated by addition of 15 μL [γ-33P]ATP (final concentration 10 μM).
The reaction was stopped after […] by the addition of 30 μL 0.1M phosphoric acid containing 2 mM ATP. […]
After removing mean background values for all of the data points, Ki(app) data were calculated from non-linear regression analysis of the initial rate data using the Prism software package (GraphPad Prism version 3.0cx for Macintosh, GraphPad Software, San Diego, Calif., USA).

ATR kinase, sequence (Q13535 whole entry): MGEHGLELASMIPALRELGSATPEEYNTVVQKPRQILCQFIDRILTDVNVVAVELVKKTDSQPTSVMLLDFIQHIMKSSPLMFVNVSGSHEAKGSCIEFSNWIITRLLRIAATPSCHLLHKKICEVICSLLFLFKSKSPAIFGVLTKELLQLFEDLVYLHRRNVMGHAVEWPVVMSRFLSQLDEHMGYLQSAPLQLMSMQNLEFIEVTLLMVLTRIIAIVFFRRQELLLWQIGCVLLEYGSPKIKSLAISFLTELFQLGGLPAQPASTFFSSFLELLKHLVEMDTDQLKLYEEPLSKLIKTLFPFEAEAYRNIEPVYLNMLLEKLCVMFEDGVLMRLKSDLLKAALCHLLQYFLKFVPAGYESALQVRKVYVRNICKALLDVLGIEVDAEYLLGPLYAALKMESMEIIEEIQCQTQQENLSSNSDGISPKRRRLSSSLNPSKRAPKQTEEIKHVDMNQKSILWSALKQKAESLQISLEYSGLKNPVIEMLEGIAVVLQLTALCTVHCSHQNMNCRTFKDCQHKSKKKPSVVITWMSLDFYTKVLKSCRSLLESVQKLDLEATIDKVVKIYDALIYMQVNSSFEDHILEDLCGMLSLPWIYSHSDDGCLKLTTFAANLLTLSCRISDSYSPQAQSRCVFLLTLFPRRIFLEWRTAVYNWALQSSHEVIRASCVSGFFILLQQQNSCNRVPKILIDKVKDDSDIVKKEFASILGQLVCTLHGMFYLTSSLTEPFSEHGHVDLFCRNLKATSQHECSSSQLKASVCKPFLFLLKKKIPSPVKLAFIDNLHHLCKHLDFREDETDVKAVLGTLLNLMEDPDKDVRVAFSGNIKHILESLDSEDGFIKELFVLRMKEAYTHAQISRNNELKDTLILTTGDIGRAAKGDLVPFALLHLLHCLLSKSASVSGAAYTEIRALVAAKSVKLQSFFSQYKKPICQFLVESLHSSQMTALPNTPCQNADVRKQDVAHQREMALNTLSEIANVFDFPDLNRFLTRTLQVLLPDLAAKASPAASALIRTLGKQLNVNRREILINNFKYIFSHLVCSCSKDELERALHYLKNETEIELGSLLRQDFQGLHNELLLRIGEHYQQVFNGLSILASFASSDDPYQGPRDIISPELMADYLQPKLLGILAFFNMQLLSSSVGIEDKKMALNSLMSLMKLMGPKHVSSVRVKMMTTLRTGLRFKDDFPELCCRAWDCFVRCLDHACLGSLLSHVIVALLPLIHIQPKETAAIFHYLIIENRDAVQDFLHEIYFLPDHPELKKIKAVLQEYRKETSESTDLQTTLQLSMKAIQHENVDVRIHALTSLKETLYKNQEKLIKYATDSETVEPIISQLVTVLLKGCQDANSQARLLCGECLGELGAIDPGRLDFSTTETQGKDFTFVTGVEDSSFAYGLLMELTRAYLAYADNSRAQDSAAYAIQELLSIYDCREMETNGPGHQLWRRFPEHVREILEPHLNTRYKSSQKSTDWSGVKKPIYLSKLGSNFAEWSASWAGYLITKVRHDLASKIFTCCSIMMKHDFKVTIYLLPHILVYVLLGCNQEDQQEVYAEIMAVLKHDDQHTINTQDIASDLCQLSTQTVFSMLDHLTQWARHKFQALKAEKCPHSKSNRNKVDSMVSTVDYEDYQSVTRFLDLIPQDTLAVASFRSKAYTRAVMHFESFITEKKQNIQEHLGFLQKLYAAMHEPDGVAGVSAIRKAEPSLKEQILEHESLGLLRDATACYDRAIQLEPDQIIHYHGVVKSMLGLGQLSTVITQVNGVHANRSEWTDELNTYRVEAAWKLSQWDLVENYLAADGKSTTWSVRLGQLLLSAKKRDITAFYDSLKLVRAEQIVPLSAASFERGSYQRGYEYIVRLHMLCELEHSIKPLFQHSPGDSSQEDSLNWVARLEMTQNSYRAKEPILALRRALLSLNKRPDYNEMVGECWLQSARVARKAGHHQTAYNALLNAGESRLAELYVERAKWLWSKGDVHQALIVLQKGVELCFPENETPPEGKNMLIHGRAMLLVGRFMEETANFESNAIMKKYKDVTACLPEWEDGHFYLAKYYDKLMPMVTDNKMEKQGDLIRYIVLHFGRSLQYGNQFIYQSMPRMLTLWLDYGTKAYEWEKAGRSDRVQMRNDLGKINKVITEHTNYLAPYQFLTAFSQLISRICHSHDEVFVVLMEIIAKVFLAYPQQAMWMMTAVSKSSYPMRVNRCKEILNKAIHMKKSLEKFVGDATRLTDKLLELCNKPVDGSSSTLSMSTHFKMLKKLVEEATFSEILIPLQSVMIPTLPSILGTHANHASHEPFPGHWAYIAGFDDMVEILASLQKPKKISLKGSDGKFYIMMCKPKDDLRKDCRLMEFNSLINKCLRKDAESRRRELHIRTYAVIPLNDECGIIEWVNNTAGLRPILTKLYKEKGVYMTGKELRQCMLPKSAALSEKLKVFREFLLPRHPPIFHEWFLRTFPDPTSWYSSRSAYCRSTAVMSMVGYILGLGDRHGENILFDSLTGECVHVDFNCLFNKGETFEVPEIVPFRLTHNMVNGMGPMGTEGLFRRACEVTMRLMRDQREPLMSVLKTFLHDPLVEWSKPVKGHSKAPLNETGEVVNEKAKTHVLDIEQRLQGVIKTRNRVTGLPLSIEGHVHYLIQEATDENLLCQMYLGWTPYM

`CC(C)S(=O)(=O)c1ccc(-c2cnc(N)c(C3CC(c4ccccc4)=NO3)n2)cc1` (stereo not shown) [Compound I-1, 5-(4-(isopropylsulfonyl)phenyl)-3-(3-phenyl-4,5-dihydroisoxazol-5-yl)pyrazin-2-amine]: the Ki stood at 16 nM.
